Test results published in ChEMBL document CHEMBL4627279, “Discovery and structure-activity relationships of spiroindolines as novel inducers of oligodendrocyte progenitor cell differentiation” (Bioorg Med Chem, 2020).
The source made the active and inactive calls. No cut-off for these calls is given here.

How the values were obtained:
cells [1] = conditions: Rattus norvegicus
Description: Induction of rat oligodendrocyte precursor cells differentiation assessed as myelin basic protein expression by immunostaining based assay

Cytochrome P450 2C9 = Cytochrome P450 2C9 (Homo sapiens, UniProt P11712); assay: Inhibition of CYP2C9 in human liver microsomes; format: ADME
[2] = Volume of distribution in C57BL/6 mouse at 1 mg/kg, iv administered as a single dose; format: ADME, organism-based; conditions: in vivo
[3] = Oral bioavailability in C57BL/6 mouse at 10 mg/kg administered as a single dose; format: ADME, organism-based; conditions: in vivo
in vitro [4] = conditions: human
Description: Metabolic stability in human assessed as parent compound remaining after 30 mins

Cytochrome P450 3A4 = Cytochrome P450 3A4 (Homo sapiens, UniProt P08684); assay: Inhibition of CYP3A4 in human liver microsomes; format: ADME
[5] = Brain to plasma permeability coefficient, Kp of the compound in C57BL/6 mouse after 0.5 hrs; format: ADME
physchem = conditions: buffer, pH 7.4
Description: Lipophilicity, log D of the compound at pH 7.4

[6] = Elimination half life in C57BL/6 mouse at 10 mg/kg, po administered as a single dose; format: ADME, organism-based; conditions: in vivo, read-out: beta t1/2 (converted)
[7] = Cmax in C57BL/6 mouse at 10 mg/kg, po administered as a single dose; format: ADME, organism-based; set-up: dose 10 mg/kg, route oral; conditions: in vivo
[8] = Brain to plasma permeability coefficient, Kp of the compound in C57BL/6 mouse after 4 hrs; format: ADME
Mus musculus = assay: Immunosuppressive activity in MOG (35 to 55 residues)/pertussis toxin-induced experimental autoimmune encephalomyelitis C57BL/6 mouse model assessed as reduction in development of clinical symptoms at 50 mg/kg, po administered once a day starting from day 3 post immunization upto 17 days; format: functional, organism-based
[9] = AUClast in C57BL/6 mouse at 10 mg/kg, po administered as a single dose; format: ADME, organism-based; set-up: dose 10 mg/kg, route oral, time 0 - last; conditions: in vivo
hERG (KCNH2) = hERG (KCNH2) (Homo sapiens, UniProt Q12809); assay: in vitro
Description: Inhibition of human ERG at 10 uM

in vitro [10] = conditions: mouse
Description: Metabolic stability in mouse assessed as parent compound remaining after 30 mins

CYP2D6 = CYP2D6 (Homo sapiens, UniProt P10635); assay: Inhibition of CYP2D6 in human liver microsomes at 10 uM; format: ADME
[11] = Plasma clearance in C57BL/6 mouse at 1 mg/kg, iv administered as a single dose; format: ADME, organism-based
cells [12] = conditions: Rattus norvegicus; remark: listed apart in the source
Description: Induction of rat oligodendrocyte precursor cells differentiation assessed as myelin basic protein expression by immunostaining based assay relative to control

Sequence of hERG (KCNH2) (Q12809 whole entry): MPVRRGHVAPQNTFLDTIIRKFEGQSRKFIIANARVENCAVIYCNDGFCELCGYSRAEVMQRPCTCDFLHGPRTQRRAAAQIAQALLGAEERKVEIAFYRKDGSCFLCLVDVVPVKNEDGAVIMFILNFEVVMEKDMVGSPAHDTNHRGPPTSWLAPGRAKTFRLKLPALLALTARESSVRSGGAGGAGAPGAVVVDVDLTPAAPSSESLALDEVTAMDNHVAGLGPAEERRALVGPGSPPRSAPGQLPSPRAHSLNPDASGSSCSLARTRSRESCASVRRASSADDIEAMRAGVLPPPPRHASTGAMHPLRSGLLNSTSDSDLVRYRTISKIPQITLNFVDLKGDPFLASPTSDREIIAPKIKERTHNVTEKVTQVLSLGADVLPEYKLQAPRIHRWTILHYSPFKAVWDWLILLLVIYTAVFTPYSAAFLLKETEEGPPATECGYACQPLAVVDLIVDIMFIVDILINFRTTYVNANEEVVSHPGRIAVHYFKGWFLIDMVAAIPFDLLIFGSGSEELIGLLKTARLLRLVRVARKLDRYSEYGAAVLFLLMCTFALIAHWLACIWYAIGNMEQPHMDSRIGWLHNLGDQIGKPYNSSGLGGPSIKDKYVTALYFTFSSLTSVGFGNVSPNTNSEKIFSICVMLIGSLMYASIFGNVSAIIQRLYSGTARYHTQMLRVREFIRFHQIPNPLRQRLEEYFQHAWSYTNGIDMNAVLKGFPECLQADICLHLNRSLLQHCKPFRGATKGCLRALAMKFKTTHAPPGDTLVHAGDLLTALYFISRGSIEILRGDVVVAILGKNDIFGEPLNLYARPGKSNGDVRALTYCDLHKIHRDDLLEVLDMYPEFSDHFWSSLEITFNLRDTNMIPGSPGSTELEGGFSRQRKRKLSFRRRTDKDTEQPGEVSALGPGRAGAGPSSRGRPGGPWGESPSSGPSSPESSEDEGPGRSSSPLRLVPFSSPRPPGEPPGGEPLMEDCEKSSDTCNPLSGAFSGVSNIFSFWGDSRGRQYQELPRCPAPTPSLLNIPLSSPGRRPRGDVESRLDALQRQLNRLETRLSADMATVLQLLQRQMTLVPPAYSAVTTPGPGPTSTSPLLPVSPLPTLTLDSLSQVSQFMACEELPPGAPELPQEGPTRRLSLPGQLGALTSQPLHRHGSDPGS
Sequence of Cytochrome P450 2C9 (P11712 whole entry): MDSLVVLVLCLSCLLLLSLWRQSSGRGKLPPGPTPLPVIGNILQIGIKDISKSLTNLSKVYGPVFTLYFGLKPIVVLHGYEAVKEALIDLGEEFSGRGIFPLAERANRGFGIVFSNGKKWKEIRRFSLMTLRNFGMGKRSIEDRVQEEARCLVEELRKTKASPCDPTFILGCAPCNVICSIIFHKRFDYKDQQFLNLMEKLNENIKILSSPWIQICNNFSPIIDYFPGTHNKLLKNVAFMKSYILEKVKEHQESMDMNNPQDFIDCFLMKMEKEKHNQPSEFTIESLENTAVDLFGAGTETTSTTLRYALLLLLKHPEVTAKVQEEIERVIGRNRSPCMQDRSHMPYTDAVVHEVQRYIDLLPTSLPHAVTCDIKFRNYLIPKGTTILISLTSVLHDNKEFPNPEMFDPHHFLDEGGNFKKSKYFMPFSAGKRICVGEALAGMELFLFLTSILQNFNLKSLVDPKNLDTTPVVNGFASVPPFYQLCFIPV
Sequence of CYP2D6 (P10635 whole entry): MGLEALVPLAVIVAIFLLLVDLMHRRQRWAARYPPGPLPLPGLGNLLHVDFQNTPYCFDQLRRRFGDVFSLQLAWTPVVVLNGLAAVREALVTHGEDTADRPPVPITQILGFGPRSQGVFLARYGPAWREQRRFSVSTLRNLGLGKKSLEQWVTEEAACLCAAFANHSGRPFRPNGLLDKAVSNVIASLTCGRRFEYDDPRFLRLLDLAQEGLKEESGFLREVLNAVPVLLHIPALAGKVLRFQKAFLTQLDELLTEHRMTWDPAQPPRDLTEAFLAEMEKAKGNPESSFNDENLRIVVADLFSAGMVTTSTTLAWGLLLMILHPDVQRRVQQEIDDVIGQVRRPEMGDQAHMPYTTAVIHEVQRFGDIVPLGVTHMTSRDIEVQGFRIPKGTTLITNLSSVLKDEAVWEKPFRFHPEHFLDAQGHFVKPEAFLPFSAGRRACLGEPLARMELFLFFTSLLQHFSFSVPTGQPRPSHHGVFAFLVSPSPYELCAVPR
Sequence of Cytochrome P450 3A4 (P08684 whole entry): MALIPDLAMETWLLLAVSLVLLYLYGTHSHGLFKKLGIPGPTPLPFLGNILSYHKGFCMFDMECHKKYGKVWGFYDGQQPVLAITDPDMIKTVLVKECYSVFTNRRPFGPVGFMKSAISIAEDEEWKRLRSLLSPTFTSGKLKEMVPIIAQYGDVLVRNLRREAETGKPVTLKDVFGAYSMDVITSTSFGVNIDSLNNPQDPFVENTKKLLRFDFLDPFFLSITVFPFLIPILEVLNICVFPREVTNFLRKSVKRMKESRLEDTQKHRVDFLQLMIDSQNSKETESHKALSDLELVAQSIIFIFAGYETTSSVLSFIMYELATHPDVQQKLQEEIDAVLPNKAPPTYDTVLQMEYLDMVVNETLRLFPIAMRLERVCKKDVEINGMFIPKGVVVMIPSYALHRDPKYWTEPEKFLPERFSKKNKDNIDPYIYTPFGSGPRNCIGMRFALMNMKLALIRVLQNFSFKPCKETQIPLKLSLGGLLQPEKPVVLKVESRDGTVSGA

EC50 (cells [1])	SMILES	further results
0.55 µM	CCCN1CCC2(CC1)Nc1ccc(C(C)C)cc1C2=O	–
0.55 µM	O=C1c2ccccc2NC12CCN(CC1CCOCC1)CC2	–
0.059 µM	CC(C)Oc1ccc2c(c1)C(=O)C1(CCN(CC3CCOCC3)CC1)N2	–
0.32 µM	O=C1c2cc(Cl)ccc2NC12CCN(CC1CCOCC1)CC2	–
> 10 µM	O=C1c2cc(O)ccc2NC12CCN(CC1CCOCC1)CC2	–
0.24 µM	FC(F)(F)c1ccc2c(c1)CC1(CCN(CC3CCOCC3)CC1)N2	–
0.037 µM	CC(C)c1ccc2c(c1)C(=O)C1(CCN(CC3CCCCC3)CC1)N2	–
0.0046 µM	CC(C)c1ccc2c(c1)C(=O)C1(CCN(CC3CCOCC3)CC1)N2	–
0.025 µM	CC(C)c1ccc2c(c1)C(=O)C1(CCN(CC3CCCC3)CC1)N2	–
> 10 µM	CC(C)c1ccc2c(c1)C(=O)C1(CCN(C(=O)C3CC3)CC1)N2	–

Second part, the compound before the results:

SMILES	EC50 (cells [1])	further results
CC(C)CN1CCC2(CC1)Nc1ccc(C(C)C)cc1C2=O	0.33 µM	–
COC1c2cc(C(F)(F)F)ccc2NC12CCN(CC1CCOCC1)CC2 (stereo unspecified)	0.0057 µM	–
O=C1c2cc(C(F)(F)F)ccc2NC12CCN(CC1CCOCC1)CC2	0.0032 µM	IC50 (Cytochrome P450 2C9): > 18 µM; Vd [2]: 31.5 L/kg; bioavailability [3]: 116%; remaining at 0.5 h (in vitro [4]): 35%; IC50 (Cytochrome P450 3A4): > 18 µM; Kp at 0.5 h [5]: 25.5; logD (physchem): 2.8; half-life [6]: 6.4 h; Cmax [7]: 0.308 µg/mL; Kp at 4 h [8]: 50.9; Activity (Mus musculus): Active; AUC(0-t) [9]: 1.78 µg·h/mL; inhibition at 10 µM (hERG (KCNH2)): 94%; remaining at 0.5 h (in vitro [10]): 68%; inhibition at 10 µM (CYP2D6): 70%; clearance [11]: 4.75 L/h/kg; Emax (cells [12]): 240%
CC(C)(C)c1ccc2c(c1)C(=O)C1(CCN(CC3CCOCC3)CC1)N2	0.0099 µM	–
CC(C)c1ccc2c(c1)C(=O)C1(CCN(CCc3ccccc3)CC1)N2	0.54 µM	–
O=C1c2cc(C(F)(F)F)ccc2CC12CCN(CC1CCOCC1)CC2	0.11 µM	–
COc1ccc2c(c1)C(=O)C1(CCN(CC3CCOCC3)CC1)N2	0.97 µM	–
OC1c2cc(C(F)(F)F)ccc2NC12CCN(CC1CCOCC1)CC2 (stereo unspecified)	0.52 µM	–
CC(C)c1ccc2c(c1)C(=O)C1(CCN(S(=O)(=O)C3CC3)CC1)N2	> 10 µM	–
CN1c2ccc(C(F)(F)F)cc2CC12CCN(CC1CCOCC1)CC2	7.1 µM	–
CC(C)c1ccc2c(c1)C(=O)C1(CCN(CC3CCC3)CC1)N2	0.016 µM	–
CC(C)c1ccc2c(c1)C(=O)C1(CCN(Cc3ccccc3)CC1)N2	0.33 µM	–
CN1c2ccc(C(F)(F)F)cc2C(=O)C12CCN(CC1CCOCC1)CC2	0.0093 µM	–
O=C1c2cc(C(F)(F)F)ccc2OC12CCN(CC1CCOCC1)CC2	0.48 µM	–
